In the OPERA property sets (Mansouri et al. 2018) one finds logP data, which are given here for twelve molecules.

Molecules are shown by their SMILES.

On to `CC(C)(C)c1cc(C(O)CCC2CCNCC2)c2ccccc2n1` (configuration not stated), for which the logP – broadly, the decadic logarithm of the partition coefficient of the neutral form, usually between octanol and water – was determined as 3.63.
Next, `CC(C)NCC(O)COc1cccc2c1N(C(=O)c1cccnc1)CCC2` (configuration not stated): 1.63.
In the case of `CC(C)(C)NCC(O)COc1ccccc1C#N` (configuration not stated) it was 1.6; in that of `CCN1CCCC1CNC(=O)c1cc(S(=O)(=O)CC)c(N)cc1OC` (configuration not stated), 1.1.
Next, `O=C(NCC1CCCCN1)c1cc(OCC(F)(F)F)ccc1OCC(F)(F)F` (configuration not stated): 3.78; `C=CCN1CCCC1CNC(=O)c1cc2nn[nH]c2cc1OC` (configuration not stated): 1.79.
`CC(=O)Oc1c(C)cc(OCC(O)CNC(C)C)c(C)c1C` (configuration not stated) registered a logP of 2.66.
In the case of `CC(C)NCCCC1(C(N)=O)c2ccccc2-c2ccccc21` it was 3.11.
Take `C=CCN1CCCC1CNC(=O)c1cc(S(N)(=O)=O)cc(OC)c1OC` (configuration not stated): the logP turned out to be 1.47.
Next, `CCN1CCCC1CNC(=O)c1cc(S(=O)(=O)CC)ccc1OC` (configuration not stated): 1.06; `CNC(=O)Nc1c(OCCN2CCCC2)c(OC)c2occc2c1OC`: 1.38.
`CN1CCN(CCCN2c3ccccc3Sc3ccccc32)CC1` yielded a logP of 4.
